Measurements published in patent US12109207B2, “Methods of using 4(1H)-quinolone derivatives” (Academia Sinica, priority 2019, dated 2024).
Like-named read-outs stand apart in the source and are kept apart here.

Tests used:
tubulin = tubulin (Sus scrofa, UniProt P02554); assay: Limited proteolysis assay; format: binding; settings: 100 μM, 30 min at 30° C.
Protocol: Tubulin (1 mg/mL) was incubated individually with a test compound for 30 min at 30° C. in 0.1 M morpholino ethanesulfonic acid, 1 mM MgCl2, 1 mM EGTA, pH 6.9, and then 25 μg/mL trypsin (TPCK-treated, Sigma Aldrich; 1:40 [w/w] trypsin/tubulin) was added to the solution for a 10-min digestion at 4° C. Samples were electrophoresed through a 15% SDS-PAGE gel and stained with Coomassie brilliant blue R250. The images were scanned and quantified using a BioSpectrum Imaging System (UVP).

Purified porcine tubulin = target: T1, Purified porcine tubulin (Sus scrofa, UniProt P02554); assay: In vitro tubulin polymerization assay; format: biochemical; settings: 5 μM, A340 every min for 1 h at 37° C.
T1 construct: purchased Cytoskeleton
Protocol: Reagents from a Tubulin Polymerization Assay kit (Cytoskeleton) were used according to the manufacturer's instructions. Purified porcine tubulin (4 mg/mL; >99% purity) in G-PEM buffer (80 mM PIPES, 2 mM MgCl2, 0.5 mM EGTA, 1 mM GTP, 15% glycerol, pH 6.9) was mixed with each test compound in the wells of a 96-well plate. Then, the A340 value was recorded each minute for 1 h at 37° C. with the VersaMax microplate reader.

CEM/VBL = assay: Cell cytotoxicity assay (MTS), CEM/VBL; format: cell-based, human; settings: for RF, resistance factor (IC50 in resistant cell line/IC50 in parent cell line): CEM/VBL vs CCRF-CEM; for IC50: Homo sapiens, CEM/VBL, P-gp overexpressing, vinblastine-selected CCRF-CEM subline
Protocol: (§1) Cells were seeded into the wells of 96-well plates (2000 cells/well). After an overnight culture, the cells were treated with different concentrations of a compound for 72 h. The CellTiter 96 AQueous one-solution cell proliferation assay (MTS) reagent was used to determine cytotoxicity. After treatment with a compound, 20 μL of the MTS reagent was added to each well and the plates were incubated at 37° C. for 1-4 h. Next, the absorbance at 490 nm of the culture medium in each well was determined using a VersaMax microplate reader (Molecular Devices).

CCRF-CEM = assay: Cell cytotoxicity assay (MTS), CCRF-CEM; format: cell-based; settings: Homo sapiens
Protocol: as §1

KBtax = assay: Cell cytotoxicity assay (MTS), KBtax; format: cell-based, human; settings: for IC50: Homo sapiens, KBtax, P-gp overexpressing, paclitaxel-selected KB subline
Protocol: as §1

KBvin = assay: Cell cytotoxicity assay (MTS), KBvin; format: cell-based, human; settings: for IC50: Homo sapiens, KBvin, P-gp overexpressing, vincristine-selected KB subline; for RF, resistance factor (IC50 in resistant cell line/IC50 in parent cell line): KBvin vs KB
Protocol: as §1

[1] = target: colchicine site of tubulin (Sus scrofa, UniProt P02554); assay: Colchicine competition assay; format: binding; settings: 37° C. for 1 h
Protocol: Tubulin ([…]) and colchicine ([…]) were incubated with the various concentrations of AS1712, nocodazole, or vincristine in 80 mM PIPES, 2 mM MgCl2, 0.5 mM EGTA, pH 6.9 at 37° C. for 1 h. Fluorescence intensities (excitation and emission wavelengths at 365 and 435 nm, respectively) were recorded using an Infinite M200 plate reader (Tecan). Fluorescence values were normalized to the DMSO control.

KB = assay: Cell cytotoxicity assay (MTS), KB; format: cell-based; settings: Homo sapiens
Protocol: as §1

H1975 xenograft tumor = H1975 xenograft tumor model; format: in vivo, BALB/c nude mice; settings: day 21
Protocol: (§2) Using the H1975, MDA-MB-231, and KBtax xenograft models, tumors were established after inoculation into the right flanks of 6-week-old BALB/c nude mice (NARLabs, Taipei, Taiwan). After establishment of the tumors, vehicle and test compounds, which had been dissolved in DMSO, were each injected intraperitoneally into a separate group of animals three times per week. The body mass of each animal and tumor volumes were measured before each drug delivery. Tumor volume was calculated as 0.5W^2L (with W being the width of the smaller diameter and L being the length of the larger diameter). The animal experiment was carried out in accordance with the procedures and guidelines of the Institutional Animal Care and Use Committee, Institute of Biomedical Sciences, Academia Sinica.

[2] = Body mass and serum biochemical markers, H1975 xenograft mice; format: in vivo, BALB/c nude mice; settings: 4 or 8 mg/kg i.p. three times a week, end of experiment
Protocol: as §2

[3] = Body mass, MDA-MB-231 xenograft mice; format: in vivo, BALB/c nude mice; settings: 4 or 8 mg/kg i.p. three times a week, 35 days
Protocol: as §2

[4] = Body mass and serum biochemical markers, KBtax xenograft mice; format: in vivo, BALB/c nude mice
Protocol: The body mass of each animal and tumor volumes were measured before each drug delivery. Tumor volume was calculated as 0.5W^2L (with W being the width of the smaller diameter and L being the length of the larger diameter). The animal experiment was carried out in accordance with the procedures and guidelines of the Institutional Animal Care and Use Committee, Institute of Biomedical Sciences, Academia Sinica.

Hs578t = assay: Cell cytotoxicity assay (MTS), Hs578t; format: cell-based; settings: Homo sapiens, Hs-578T, 72 h
Protocol: as §1

37T = assay: Cell cytotoxicity assay (MTS), 37T; format: cell-based; settings: Homo sapiens, 72 h
Protocol: as §1

HDQP1 = assay: Cell cytotoxicity assay, HDQP1; format: cell-based; settings: Homo sapiens, HDQ-P1; TNBC cell line HDQP1
Protocol: as §1

H1975 cells = assay: Cell cytotoxicity assay (MTS), H1975; format: cell-based, human; settings: Homo sapiens, read-out: IC50
Protocol: as §1

P-gp = target: T2, P-gp (Homo sapiens, UniProt P08183); assay: Rhodamine efflux assay; format: cell-based; settings: KBtax cells
T2 construct: KBtax, KBvin, and CEM/VBL cancer cell lines, which overexpress P-gp; endogenous in cells; host or cells: KBtax cells (paclitaxel-selected subline of human KB)
Protocol: KBtax cells (2.5×10^5/test) were collected and held on ice for 1 h in cold medium with […] rhodamine. Then, the cells were resuspended in medium warmed to 37° C. with one of the indicated compounds and incubated for 1 h in a water bath at the same temperature for efflux determination. The fluorescence intensities were quantified by FACSCanto flow cytometry.

TNBC cell lines = assay: Cytotoxicity against triple-negative breast cancer cell lines; format: cell-based; settings: Homo sapiens; BT-549, Hs578t, MDA-MB-231, 37T, 82T; 72 h MTS; read-out: IC50 values in different TNBC cell lines
Protocol: as §1

BT-549 = assay: Cell cytotoxicity assay (MTS), BT-549; format: cell-based; settings: Homo sapiens, BT-549, 72 h
Protocol: as §1

P-gp expression = P-gp expression immunoblotting in KBtax cells; format: cell-based, human; settings: 24 h
Protocol: The cells were harvested and lysed in RIPA buffer (20 mM Tris-HCl, 150 mM NaCl, 1 mM Na2EDTA, 1% sodium deoxycholate, 1% IGEPAL CA-630, 0.1% SDS, pH 7.5) with protease inhibitors (Roche). Protein concentration was measured by the BCA assay. For immunoprecipitation, protein extracts were incubated with mag-beads-AS1712 or mag-beads-control at 4° C. overnight and then washed five times with PBS before immunoblotting. For immunoblotting, equivalent amounts of denatured proteins were separated through SDS-PAGE gels and then transferred to PVDF membranes (Millipore), which were each blocked with 5% nonfat milk in PBS and 0.1% Tween-20 (Sigma Aldrich) for 1 h. Then each membrane was incubated with a primary antibody overnight at 4° C., followed by incubation with a horseradish peroxidase conjugated secondary antibody for 1 h at room temperature. The signal was visualized by enhanced chemiluminescence detection, and images were acquired using a BioSpectrum Imaging System (UVP).

MDA-MB-231 = assay: Cell cytotoxicity assay (MTS), MDA-MB-231; format: cell-based; settings: Homo sapiens, MDA-MB-231, 72 h
Protocol: as §1

HDQP1/TAX = assay: Cell cytotoxicity assay, HDQP1/TAX; format: cell-based, human
Protocol: as §1

[5] = tested on: human fibroblast (HFB) cells; assay: Cell cytotoxicity assay (MTS), human fibroblast; format: cell-based; settings: normal cell line HFB
Protocol: as §1

KBtax xenograft tumors = assay: KBtax xenograft tumor model; format: in vivo, BALB/c nude mice
Protocol: as §2

82T = assay: Cell cytotoxicity assay (MTS), 82T; format: cell-based; settings: Homo sapiens, 72 h
Protocol: as §1

[6] = tested on: MDA-MB-231 xenograft tumors; assay: MDA-MB-231 xenograft tumor model; format: in vivo, BALB/c nude mice; settings: day 35
Protocol: as §2

[7] = 4 mg/kg intraperitoneally three times a week
[8] = 8 mg/kg intraperitoneally three times a week
[9] = end of experiment, paclitaxel 15 mg/kg, RJ-LC-15-8 8 mg/kg, mean ± SEM

CC[C@]1(O)C[C@H]2CN(CCc3c([nH]c4ccccc34)[C@@](C(=O)OC)(c3cc4c(cc3OC)N(C=O)[C@H]3[C@@](O)(C(=O)OC)[C@H](OC(C)=O)[C@]5(CC)C=CCN6CC[C@]43[C@@H]65)C2)C1 [Vincristine, vincristine]
tryptic pattern after limited trypsin digestion (tubulin): decreased the amount of the βcol, αN, and αC fragments
tubulin polymerization (Purified porcine tubulin): inhibit tubulin polymerization
RF, resistance factor (IC50 in resistant cell line/IC50 in parent cell line) (CEM/VBL): 440
IC50 (CEM/VBL): 1320 ± 20.6 nM
IC50 (CCRF-CEM): 3 ± 0.04 nM
IC50 (KBtax): 49 ± 2.96 nM
IC50 (KBvin): 817 ± 47.4 nM
RF, resistance factor (IC50 in resistant cell line/IC50 in parent cell line) (KBvin): 163
colchicine fluorescence [1]: did not
IC50 (KB): 5 ± 0.31 nM

CCOC(=O)c1ccc2[nH]c(-c3cccc(F)c3)cc(=O)c2c1 [RJ-LC-15-8, Ethyl 2-(3-fluorophenyl)-4-oxo-1,4-dihydroquinoline-6-carboxylate]
average tumor size (H1975 xenograft tumor; [7]): 1333±121.9 mm^3
average tumor size (H1975 xenograft tumor; [8]): 972.5±52.3 mm^3
body mass [2]: not affected
body mass [3]: did not affect
Body mass and serum biochemical markers for liver and kidney functions ([4]; 8 mg/kg, end of the experiment): not negatively affected
ALT (IU/L) [4, 9]: 64 ± 10.8 IU/L
AST(IU/L) [4, 9]: 120.7 ± 27.5 IU/L
BUN [4, 9]: 18.2 ± 1 mg/dL
Cre [4, 9]: 0.26 ± 0.04 mg/dL
tubulin polymerization (Purified porcine tubulin): direct inhibition
IC50 (Hs578t): 34 ± 4.71 nM
IC50 (37T): 22 ± 0.61 nM
RF, resistance factor (IC50 in resistant cell line/IC50 in parent cell line) (CEM/VBL): 0.8
IC50 (CEM/VBL): 16 ± 0.52 nM
IC50 (HDQP1): 39 ± 0.49 nM
IC50 (H1975 cells; NCI-H1975, 72 h, H1975 cells, 72 h, MTS): 24 nM
IC50 (H1975 cells; NCI-H1975, Table 8, cell line not given, values match H1975): 24 ± 1 nM
P-gp pump activity (P-gp): did not directly inhibit
IC50 (TNBC cell lines): 21 to 35 nM
IC50 (BT-549): 21 ± 1.14 nM
IC50 (CCRF-CEM): 20 ± 1.71 nM
IC50 (KBtax): 30 ± 1.35 nM
RF, resistance factor (IC50 in resistant cell line/IC50 in parent cell line) (KBtax; KBtax vs KB): 0.88
P-gp expression (P-gp expression): did not affect
IC50 (MDA-MB-231): 35 ± 1.45 nM
IC50 (KBvin): 35 ± 0.88 nM
RF, resistance factor (IC50 in resistant cell line/IC50 in parent cell line) (KBvin): 1
RF, resistance factor (IC50 in resistant cell line/IC50 in parent cell line) (HDQP1/TAX; HDQP1/TAX vs HDQP1): 1.02
IC50 (HDQP1/TAX; Homo sapiens, HDQ-P1, Paclitaxel-resistant subline): 40 ± 3.26 nM
IC50 [5]: > 10000 nM
TUNEL staining of the tumor tissues (KBtax xenograft tumors; 8 mg/kg, 21 days): induced apoptosis
average tumor size (KBtax xenograft tumors; after 21 days, i.p. three times a week, paclitaxel 15 mg/kg, RJ-LC-15-8 8 mg/kg): 528.4±101.6 mm^3
IC50 (KB): 34 ± 0.39 nM
IC50 (82T): 23 ± 1.27 nM
average tumor size [6, 7]: 105±9.4 mm^3
average tumor size [6, 8]: 73.6±8.2 mm^3

COC(=O)Nc1nc2ccc(C(=O)c3cccs3)cc2[nH]1 [nocodazole]
tryptic pattern after limited trypsin digestion (tubulin): produced an increased amount of βcol
tubulin polymerization (Purified porcine tubulin): inhibit tubulin polymerization
colchicine fluorescence [1]: decreased the colchicine fluorescence in a dose-dependent manner
